Measured values reported in patent US10759777B2, “Carbazole-containing amides, carbamates, and ureas as cryptochrome modulators” (Synchronicity Pharma, Inc., priority 2014, dated 2020).

Tests used:
[1] = system: core clock genes Per2, Bmal1, Cry2 in liver; experiment: Four day study, liver core clock gene mRNA in ICR mice; type: in vivo, mouse; details: 50 mg/kg PO BID 4 days
Procedure: Male ICR mice (weighing 30-35 g), obtained from Charles River Laboratories (Hollister, Calif.), were used for the experiment following at least 3 days of acclimation. Mice were dosed with vehicle (WFI or 10% Kolliphor) or compound (50 mg/kg, dose volume 5 mL/kg, PO) for 4 days BID (twice a day), beginning in the afternoon of the first day. The last dose of compound or vehicle was administered on the morning of harvest. On the day of harvest (6 hours following the final dose), mice were euthanized by CO2 asphyxiation and 50 mg of liver tissue was excised and placed in a tube containing 500 μl of RNA later.
E.Z.N.A.® HP Total RNA Isolation Kits (R6812-01 and the protocol described in the Manual, Revised 2010) were utilized to prepare and isolate RNA from the liver samples. To prepare the RNA samples, 10-30 mg of sample was removed from RNA-Later and placed in a 1.5 ml microfuge tube. GTC lysis buffer (700 μl) was added to the tissue, which was homogenized with a rotor-stator homogenizer (e.g. Tissue-Tearor, Model #985370 BioSpec Products with 4.5 mm probe, Cat. #985370-04), and then centrifuged at full speed (≥13,000×g) for 5 minutes. The cleared supernatant was transferred by pipetting to a DNA Clearance Column Pre-inserted in a 2 mL Collection Tube. The assembled column was centrifuged at 13,000×g for 1 minute, and the flow-through was saved. An equal volume (700 μl) of 70% ethanol was added to the lysate and mixed. The sample was then applied to a HiBind RNA spin column placed into a 2 ml collection tube, which was centrifuged at 10,000×g for 60 seconds at room temperature. RNA Wash Buffer I (250 μl) was added by pipetting directly onto a new HiBind RNA column inserted in a 2 ml collection tube. The assembled column was centrifuged at 10,000×g for 60 seconds. The RNA column was placed into a new 2 ml collection tube. DNase I stock solution is pipetted (75 μl) directly onto the surface of the HiBind RNA resin in each column (Using DNAse Digestion with RNase Free DNase Set (E1091): for each HiBind RNA column, the DNase I stock solution was prepared as followed: E.Z.N.A.® DNase I Digestion Buffer 73.5 μl, RNase Free DNase I (20 Kunitz/μl) 1.5 μl=Total Volume 75 μl). The column with bound RNA was incubated at room temperature (25-30° C.) for 15 minutes. RNA Wash Buffer I (500 μl) was added to the column and placed on a bench top for 2 minutes. After centrifuging at 10,000×g for 60 seconds, discarding the flow-through, 500 μl of RNA Wash Buffer II was added and centrifuged at 10,000×g for 60 seconds. Another 500 μl of RNA Wash Buffer II was added and the column assembly was centrifuged at 10,000×g for 60 seconds. The column was centrifuged for 2 minutes at maximum speed to completely dry the HiBind matrix. The column was placed in a clean 1.5 ml microcentrifuge tube and 40-70 μl of molecular biology grade water is added. After sitting for 1 minute, the column was centrifuged for 2 minutes at maximum speed to elute the RNA. The isolated RNA was collected into the collection tube.
RediPlate 96 RiboGreen RNA Quantification Kit (Invitrogen) RediPlate standard curve was prepared by transferring 20 l reconstituted RNA standard to a RediPlate well reconstituted in 180 l RediPlate TE buffer. For liver RNAs prepared from 30-100 mg of tissue using a kit similar to the Omega Bio-Tek HP Total RNA Kit and eluted in RNAse-free water in a volume of 50 l (microliters), 5 l of the total RNA is diluted in 195 l of RediPlate TE buffer (1:40 dilution of RNA), mix. After transferring 5 l to RediPlate well reconstituted in 195 l TE buffer and incubating 10 min. at RT, Fluorescence Intensity of wells with standards and samples were read in a Tecan M200 with Excitation set at 480 nm and Emission set at 520 nm with the gain set to ˜70%. Alternatively, one can use the FlexStation 3 with Ex 488 nm and Em 525 nm and a Cutoff of 515 nm.

[2] = system: core clock gene mRNAs in liver; experiment: Single dose at peak or nadir of Cry1 expression, liver core clock gene mRNAs; type: in vivo, mouse; details: single dose at ZT0 (peak) or ZT10 (nadir); liver 7.5 hours later
Procedure: For compounds that interact directly with the core clock mechanism, the time of dosing may be critical for maximizing their effects. […] The former (ZTO) is coincident with the peak of Cry1 and Bmal1 protein in mouse liver and the latter (ZT10) corresponds to the approximate nadir of Cry1 and Bmal1. Liver tissue was taken 7.5 hours later for each, and the samples were examined for core clock gene mRNAs by RT-qPCR.

[3] = system: rat model of cortisone-induced insulin resistance; experiment: Cortisone induced insulin resistance in rats; type: in vivo; details: 50 mg/kg po with cortisone 30 mg/kg sc
Procedure: Animals were dosed with cortisone (30 mg/kg sc qd) in combination with test compounds for 6 days and then terminated 27 hours after the final dose of cortisone. A reference standard (Mifepristone) was also included. Cortisone 21-acetate (Sigma C-3130) was supplied by RenaSci and administered using a dose volume of 5 ml/kg via the subcutaneous route as a fine suspension in 1% methylcellulose. […] Mifepristone (Sigma M8046) was provided by RenaSci.
Glucose and insulin determinations were performed on plasma samples obtained from a tail vein bleed taken after a 12 h fast, approximately 27 h after the last cortisone dose. Animals were then terminated and a terminal (cardiac) blood sample taken from which plasma was prepared.
Thirty four male Sprague Dawley rats (weight range 200-250 g) were ordered from Charles River, Margate, Kent, UK. […] Subsequently, animals underwent a 3 day baseline period during which they were dosed once daily with vehicle at t=0 h (07:00). […] Body weight was recorded immediately before dosing began at 07:00 (t=0 h).
On Day 6 of dosing rats were fasted for 12 h beginning at 22:30 (timed to coincide with the Day 7 termination). […] At 10:30 on Day 7, 27 h after the final dose of cortisone, a blood sample (300 μl) was taken from the lateral tail vein into tubes containing EDTA (Sarstedt 16.444). The blood was centrifuged and resultant plasma aliquot stored at −75° C. The animals were euthanized by CO2 asphyxiation followed by cervical dislocation. Terminal blood (approximately 10 ml) was collected by cardiac puncture into tubes containing EDTA (Sarstedt 5 ml 32.332) and then centrifuged and plasma stored at −75° C. The tail vein plasma was analyzed for glucose (n=2) using a commercial clinical reagent (Thermoelectron Infinity glucose reagent (TR15421) and for insulin (n=1) using the Mercodia ultrasensitive rat insulin rat ELISA (10-1251-10).
Plasma glucose and insulin were analyzed by robust regression or general linear model with treatment as a factor and bleeding order and baseline body weight as covariates. A log transformation was used if appropriate. Appropriate multiple comparison tests (two-tailed) were used to determine significant differences from the vehicle group and from the Cortisone group. P<0.05 was considered to be statistically significant.

What does the source list for O=C1NCCN1CC(O)Cn1c2ccc(F)cc2c2cc(F)ccc21 (centres unmarked) [Compound 72, 1-(3-(3,6-difluoro-9H-carbazol-9-yl)-2-hydroxypropyl)imidazolidin-2-one]?
liver Per2 expression ([1]; ZT6): suppression; Cry2 transcripts ([1]; liver): decrease; increase in Bmal1 mRNA at ZT6 ([1]; liver): 4 fold; impact on core clock mRNAs, dosing at peak vs nadir of Cry1 [2]: greater relative impact on the clock mRNAs at the peak compared to the nadir; fasted plasma insulin [3]: 5.24 ± 1.11 ng/mL
